Results: patent US20240050582A1, “CONJUGATES INCLUDING MULTIPLE SACCHARIDIC CHAINS ON A LINEAR PROTEIN AND USES IN MAMMALS FEED” (UNIVERSITEIT GENT, priority 2021, published 2024)
Like-named read-outs stand apart in the source and are kept apart here. Marks after values point to notes of the source that are not given here.

Tests used:
F18 E. coli [1] = type: in vivo, pig; details: compared with positive control; P<0.05
F18 E. coli [2] = assay: Part E: intestinal morphology; details: linear
[3] = tested on: F18ac bacteria 2134P (STa+ STb+); assay: In vivo small intestinal segment perfusion model (SISP); design: species or system pig
β-hemolytic coliforms = type: in vivo, pig; details: AGP (50 mg/kg carbadox)
F18 E. coli [4] = assay: Part E: bacterial translocation in lymph nodes and spleen; details: AGP
[5] = tested on: F18+ E. coli (strain 107/86); details: for Conjugate inhibition (M) / M − C (measure of the specific blockage of F18 fimbriae by A6) / Optimal inhibitory dose: A6 supplied via the conjugate / Optimal inhibitory dose: Carrier supplied via the conjugate: Table 9; for Conjugate inhibition (M): A6-1 conjugate of the carrier, at its optimal inhibitory dose; for M − C (measure of the specific blockage of F18 fimbriae by A6): difference conjugate inhibition minus carrier inhibition; for Optimal inhibitory dose: A6 supplied via the conjugate / Optimal inhibitory dose: Carrier supplied via the conjugate: in vitro; for Average % inhibition: free A6-1 10 mg/ml (positive control)
F18+ E. coli = assay: Blocking assay with fluorescein conjugated A6-1 monomers; type: binding, Escherichia coli; details: pre-incubation 1 h; actual A6-1 12 μg/ml (CMCL, CMCM), 120 μg/ml (polylysine); monomeric A6-1 1 mg/ml
Experimental: A blocking assay was developed to understand inhibition. In this assay, F18+E. coli were first incubated for one hour at room temperature with either the carriers or A6-1 conjugates, while gently shaking. Concentrations used were chosen so that the actual A6-1 concentration was 12 μg/ml for A6-1 conjugated carriers CMCM and CMCL (and the similar concentration of non-conjugated carriers) or 120 μg/ml for the A6-1 conjugated carrier polylysine (A6-1-PL-14). […] Subsequently, fluorescein conjugated A6-1 monomers (A6-F) were added (1 mg/ml) for one hour at room temperature. The fluorescing oligosaccharide was labeled at the reducing end of the molecule with fluorescein (also named 6A1-FITC). Next free A6-1-fluorescein was washed away with PBS followed by centrifugation at 2000 g for 5 min and resuspensions of the pellet with PBS. This was repeated twice.
If carriers without A6-1 bind to the bacteria, they will block the binding of A6-F and no fluorescence-bound bacteria can be detected by fluorescence microscopy. If there is no binding of the carrier to the bacteria in the first step of the test, fluorescing bacteria will be seen. […]
As aforementioned, high non-AG based inhibition of most carriers was observed. […] Subsequently, fluorescence conjugated AG-1 monomers (AG-1-F) were added and binding of the fluorescing AG-1 to the bacteria was determined using a fluorescence microscope.

[6] = d 5 PI, compared with the control, P<0.05

CNCCCCC(CNCCCCC(N)C(=O)NCCCCC(N)C(C)=O)NCC(O)C(O)C(O[C@@H]1OC(CO)[C@H](O)C(O[C@@H]2OC(CO)[C@@H](O)C(O[C@@H]3OC(CO)[C@H](O)C(O[C@H]4OC(CO)[C@H](O)C(O)C4NC(C)=O)C3O[C@@H]3OC(C)[C@@H](O)C(O)C3O)C2NC(C)=O)C1O)C(O)CO (stereo partly drawn) [Coligo A6PL]
feed efficiency from d 0 to 5 PI (F18 E. coli [1]): enhanced
ratio of villi height to crypt depth in jejunum (F18 E. coli [2]; [6]): enhanced
villi height, ratio of villi height to crypt depth, and villi area in ileum (F18 E. coli [2]; [6]): increased
villi height, ratio of villi height to crypt depth, villi width, and villi area in duodenum (F18 E. coli [2]; [6]): dose-dependently increased
ratio of villi height to crypt depth in jejunum and ileal villi height (F18 E. coli [2]; d 11 PI, P<0.10): tended to increase
net absorption of perfusion fluid ([3]; 2 μg/ml actual A6-1 (A6-1-PL-14), segment number 4): +0.03 g/cm^2
net absorption of perfusion fluid ([3]; 8 μg/ml actual A6-1 (A6-1-PL-14), segment number 5): +0.21 g/cm^2
net absorption of perfusion fluid ([3]; 32 μg/ml actual A6-1 (number 6) or the same concentration of polylysine (number 8)): 0 g/cm^2

COC(=O)N/N=C/c1c[n+]([O-])c2ccccc2[n+]1[O-] [AGP, carbadox]
percentage of β-hemolytic coliform (β-hemolytic coliforms; d 2 PI): 31.56^b %
percentage of β-hemolytic coliform (β-hemolytic coliforms; d 5 PI): 8.79^b %
percentage of β-hemolytic coliform (β-hemolytic coliforms; d 8 PI): 2.77^b %
percentage of β-hemolytic coliform (β-hemolytic coliforms; d 11 PI): 2.10%
Bacterial translocation, Lymph node (F18 E. coli [4]; d 5 PI): 147^ab cfu/g
Bacterial translocation, Spleen (F18 E. coli [4]; d 5 PI): 47 cfu/g
Bacterial translocation, Lymph node (F18 E. coli [4]; d 11 PI): 279^ab cfu/g
Bacterial translocation, Spleen (F18 E. coli [4]; d 11 PI): 56^b cfu/g

Alginate [reference compound]
Conjugate inhibition (M) [5]: 41%
M − C (measure of the specific blockage of F18 fimbriae by A6) [5]: −15%
Optimal inhibitory dose: A6 supplied via the conjugate [5]: 0.6 µg/mL
Optimal inhibitory dose: Carrier supplied via the conjugate [5]: 0.081 mg/mL

Pectin [reference compound]
Conjugate inhibition (M) [5]: 64%
M − C (measure of the specific blockage of F18 fimbriae by A6) [5]: −5%
Optimal inhibitory dose: A6 supplied via the conjugate [5]: 1.2 µg/mL
Optimal inhibitory dose: Carrier supplied via the conjugate [5]: 0.25 mg/mL

CC(=O)N[C@H]1[C@@H](O[C@H]2[C@@H](O)[C@@H](CO)O[C@@H](O[C@H]3[C@H](O)[C@@H](CO)O[C@@H](O[C@H]4[C@@H](O)[C@@H](CO)O[C@@H](O[C@H]5[C@H](O)[C@@H](O)C(O)O[C@@H]5CO)[C@@H]4O)[C@@H]3NC(C)=O)[C@@H]2O[C@@H]2O[C@@H](C)[C@@H](O)[C@@H](O)[C@@H]2O)O[C@H](CO)[C@H](O)[C@@H]1O (stereo partly drawn) [A6-1, GalNAcα1-3(Fucα1-2)Galβ1-3GlcNAcβ1-3Galβ1-4Glc, reference compound]
Average % inhibition ([5]; Table 8-A): 71.3%
Average % inhibition ([5]; Table 8-B CMCL type 1): 69.5%
Average % inhibition ([5]; Table 8-B CMCL type 2): 57.05%
Average % inhibition ([5]; Table 8-C CMCM type 1): 63.6%
Average % inhibition ([5]; Table 8-C CMCM type 2): 61.26%
fluorescence of bacteria after A6-1-fluorescein (blocking of A6-F binding) (F18+ E. coli): completely abolished fluorescence
